Where a name gives a salt, the structure may show the parent alone.
These compounds were tested on HBV rcDNA in HepDE19 cells (assay: HepDE19 assay with bDNA quantitation of HBV rcDNA). Details: Hepatitis B virus, HepDE19, 168 h, HepDE19 cells, 7 day incubation, rcDNA by Quantigene 2.0 bDNA assay; read-out: DE-19 bDNA EC50.
Assay type: cell-based, hepatitis B virus (HBV)
Method in brief: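 HepG2-derived HepDE19 cells, switched to Tet-free medium, were exposed 7 days at 37 °C to compound (8-point ½-log series from 25 μM, 0.5% DMSO). HBV rcDNA measured by bDNA assay with HBV-specific probes; EC50/EC90 by 4-parameter fit. CC50 from CellTiter-Glo ATP on replicate plates after 4 days.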
Work on `Cc1cccc(COC(=O)N[C@H]2CCOc3c(C(=O)Nc4ccc(F)c(F)c4)cccc32)n1` [Compound 53, (6-Methylpyridin-2-yl)methyl (S)-(8-((3,4-difluorophenyl)carbamoyl)chroman-4-yl)carbamate] yielded an EC50 of 4.4 µM. For `COc1ccnc(N[C@H]2CCOc3c(C(=O)Nc4ccc(F)c(F)c4)cccc32)n1` [Compound 54, (S)—N-(3,4-Difluorophenyl)-4-((4-methoxypyrimidin-2-yl)amino)chromane-8-carboxamide], the EC50 was 4.1 µM. With `COc1cnc(N[C@H]2CCOc3c(C(=O)Nc4ccc(F)c(F)c4)cccc32)nc1` [Compound 55, (S)—N-(3,4-Difluorophenyl)-4-((5-methoxypyrimidin-2-yl)amino)chromane-8-carboxamide] the EC50 was 2 µM. Work on `O=C(Nc1ccc(F)c(F)c1)c1c(F)ccc2c1OCC[C@@H]2Nc1ncccn1` [Compound 56, (S)—N-(3,4-Difluorophenyl)-7-fluoro-4-(pyrimidin-2-ylamino)chromane-8-carboxamide] yielded an EC50 of 2.5 µM. In the case of `Cc1ccnc(N[C@H]2CCOc3c(C(=O)Nc4ccc(F)c(F)c4)cccc32)n1` [Compound 57, (S)—N-(3,4-Difluorophenyl)-4-((4-methylpyrimidin-2-yl)amino)chromane-8-carboxamide], the EC50 is reported as 3.4 µM. For `Cc1cnc(N[C@H]2CCOc3c(C(=O)Nc4ccc(F)c(F)c4)cccc32)nc1` [Compound 58, (S)—N-(3,4-Difluorophenyl)-4-((5-methylpyrimidin-2-yl)amino)chromane-8-carboxamide], the EC50 was 9.7 µM. `O=C(N[C@H]1CCOc2c1ccc(F)c2C(=O)Nc1ccc(F)c(F)c1)OCc1ccccn1` [Compound 59, (S)-Pyridin-2-ylmethyl (8-((3,4-difluorophenyl)carbamoyl)-7-fluorochroman-4-yl)carbamate] gave an EC50 of 5.3 µM. With `O=C(Nc1ccc(F)c(F)c1)c1ccc(F)c2c1OCCC2=O` [Compound 60, N-(3,4-difluorophenyl)-5-fluoro-4-oxochromane-8-carboxamide] the EC50 was 3.9 µM. Work on `O=C(Nc1ccc(F)c(F)c1)c1cccc2c1OCCC2c1ccccc1` (stereo not shown) [Compound 62, N-(3,4-difluorophenyl)-4-phenylchromane-8-carboxamide] yielded an EC50 of 4.9 µM. With `O=C(Nc1ccc(F)c(F)c1)c1cccc2c1OCCC2c1cccnc1` (stereo not shown) [Compound 63, N-(3,4-difluorophenyl)-4-(pyridin-3-yl)chromane-8-carboxamide] the EC50 was 14 µM. Work on `O=C1CCOc2c1ccc(F)c2C(=O)Nc1ccc(F)c(F)c1` [Compound 64, N-(3,4-difluorophenyl)-7-fluoro-4-oxochromane-8-carboxamide] yielded an EC50 of 3.8 µM. `O=C1CCOc2c1ccc(F)c2C(=O)Nc1ccc(F)c(Cl)c1` [Compound 65, N-(3-chloro-4-fluorophenyl)-7-fluoro-4-oxochromane-8-carboxamide] gave an EC50 of 4.1 µM. In the case of `O=C(N[C@H]1CCOc2c(C(=O)Nc3ccc(F)c(F)c3)cccc21)OCc1ccncn1` [Compound 66, Pyrimidin-4-ylmethyl (S)-(8-((3,4-difluorophenyl)carbamoyl)chroman-4-yl)carbamate], the EC50 is reported as 3.5 µM. For `O=C(Nc1ccc(F)c(F)c1)c1cccc2c1OCC[C@@H]2Nc1ccncn1` [Compound 67, (S)—N-(3,4-Difluorophenyl)-4-(pyrimidin-4-ylamino)chromane-8-carboxamide], the EC50 was 3.6 µM. Compound `O=C(Nc1ccc(F)c(F)c1)c1cccc2c1OCCC2c1ccccn1` (stereo not shown) [Compound 68, N-(3,4-difluorophenyl)-4-(pyridin-2-yl)chromane-8-carboxamide] has an EC50 of 3.4 µM. `O=C(Nc1ccc(F)c(F)c1)c1cccc2c1OCCC2c1ncccn1` (stereo not shown) [Compound 71, N-(3,4-difluorophenyl)-4-(pyrimidin-2-yl)chromane-8-carboxamide] showed an EC50 of 12 µM. Compound `Cn1ccc(COC(=O)N[C@H]2CCOc3c(C(=O)Nc4ccc(F)c(F)c4)cccc32)n1` [Compound 72, (1-Methyl-1H-pyrazol-3-yl)methyl (S)-(8-((3,4-difluorophenyl)carbamoyl)chroman-4-yl)carbamate] has an EC50 of 2 µM. Work on `O=C(N[C@H]1CCOc2c1ccc(F)c2C(=O)Nc1ccc(F)c(Cl)c1)OCc1ccccn1` [Compound 76, (S)-Pyridin-2-ylmethyl (8-((3-chloro-4-fluorophenyl)carbamoyl)-7-fluorochroman-4-yl)carbamate] yielded an EC50 of 1.9 µM. Compound `O=C1CCOc2c1ccc(Cl)c2C(=O)Nc1ccc(F)c(F)c1` [Compound 77, 7-chloro-N-(3,4-difluorophenyl)-4-oxochromane-8-carboxamide] has an EC50 of 23 µM. In the case of `O=C(Nc1ccc(F)c(F)c1)c1ccc(Cl)c2c1OCCC2=O` [Compound 78, 5-chloro-N-(3,4-difluorophenyl)-4-oxochromane-8-carboxamide], the EC50 is reported as 7.3 µM. `O=C(Nc1ccc(F)c(Cl)c1)c1ccc(F)c2c1OCCC2=O` [Compound 79, N-(3-chloro-4-fluorophenyl)-5-fluoro-4-oxochromane-8-carboxamide] showed an EC50 of 5.3 µM. With `O=C(N[C@H]1CCOc2c(C(=O)Nc3ccc(F)c(F)c3)cccc21)OCc1cnccn1` [Compound 81, Pyrazin-2-ylmethyl (S)-(8-((3,4-difluorophenyl)carbamoyl)chroman-4-yl)carbamate] the EC50 was 2.4 µM. Work on `O=C(Nc1ccc(F)c(F)c1)c1ccc(F)c2c1OCC[C@@H]2Nc1ncccn1` [Compound 89, (S)—N-(3,4-Difluorophenyl)-5-fluoro-4-(pyrimidin-2-ylamino)chromane-8-carboxamide] yielded an EC50 of 1.1 µM. With `O=C(N[C@H]1CCOc2c1ccc(Cl)c2C(=O)Nc1ccc(F)c(F)c1)OCc1ccccn1` [Compound 90, Pyridin-2-ylmethyl (S)-(7-chloro-8-((3,4-difluorophenyl)carbamoyl)chroman-4-yl)carbamate] the EC50 was 8.4 µM. For `O=C(N[C@H]1CCOc2c(C(=O)Nc3ccc(F)c(F)c3)ccc(F)c21)OCc1ccccn1` [Compound 93, Pyridin-2-ylmethyl (S)-(8-((3,4-difluorophenyl)carbamoyl)-5-fluorochroman-4-yl)carbamate], the EC50 was 0.85 µM. In the case of `CN1CCC(COC(=O)N[C@H]2CCOc3c(C(=O)Nc4ccc(F)c(F)c4)cccc32)CC1` [Compound 95, (1-methylpiperidin-4-yl)methyl (S)-(8-((3,4-difluorophenyl)carbamoyl)chroman-4-yl)carbamate], the EC50 is reported as 24 µM. `C[C@@H](OC1CCOc2c(C(=O)Nc3ccc(F)c(F)c3)cccc21)c1ccncc1` (stereo partly drawn) [Compound 96, N-(3,4-difluorophenyl)-4-((R)-1-(pyridin-4-yl)ethoxy)chromane-8-carboxamide] gave an EC50 of 15 µM. For `O=C(Nc1ccc(F)c(F)c1)c1cccc2c1OCCC2c1cnccn1` (stereo not shown) [Compound 97, N-(3,4-difluorophenyl)-4-(pyrazin-2-yl)chromane-8-carboxamide], the EC50 was 16 µM. `Cn1nccc1COC(=O)N[C@H]1CCOc2c(C(=O)Nc3ccc(F)c(F)c3)cccc21` [Compound 100, (1-Methyl-1H-pyrazol-5-yl)methyl (S)-(8-((3,4-difluorophenyl)carbamoyl)chroman-4-yl)carbamate] was tested, and the EC50 was 2.6 µM. `Cn1nccc1CN[C@H]1CCOc2c(C(=O)Nc3ccc(F)c(F)c3)cccc21` [Compound 101] showed an EC50 of 21 µM.

Same assay, conditions: Hepatitis B virus, HepDE19, 168 h, read-out: DE-19 bDNA EC50, HepDE19 cells, 7 day incubation, rcDNA by Quantigene 2.0 bDNA assay
Compound `C[C@H](OC(=O)N[C@H]1CCOc2c(C(=O)Nc3ccc(F)c(F)c3)cccc21)c1ccccn1` [Compound 61, (S)-1-(Pyridin-2-yl)ethyl ((S)-8-((3,4-difluorophenyl)carbamoyl)chroman-4-yl)carbamate hydrochloride] has an EC50 of 4 µM. Compound `COC(=O)N[C@H]1CCOc2c1ccc(F)c2C(=O)Nc1ccc(F)c(Cl)c1` [Compound 74, (S)-Methyl (8-((3-chloro-4-fluorophenyl)carbamoyl)-7-fluorochroman-4-yl)carbamate] has an EC50 of 1.9 µM. `CNC(=O)N[C@H]1CCOc2c1ccc(F)c2C(=O)Nc1ccc(F)c(Cl)c1` [Compound 75, (S)—N-(3-Chloro-4-fluorophenyl)-7-fluoro-4-(3-methylureido)chromane-8-carboxamide] gave an EC50 of 3.2 µM. With `COc1ccnc(COC(=O)N[C@H]2CCOc3c(C(=O)Nc4ccc(F)c(F)c4)cccc32)c1` [Compound 80, (4-Methoxypyridin-2-yl)methyl (S)-(8-((3,4-difluorophenyl)carbamoyl)chroman-4-yl)carbamate hydrochloride] the EC50 was 2.7 µM. `O=C(N[C@H]1CCOc2c(C(=O)Nc3ccc(F)c(F)c3)cccc21)OCc1cc(Cl)ccn1` [Compound 82, (4-Chloropyridin-2-yl)methyl (S)-(8-((3,4-difluorophenyl)carbamoyl)chroman-4-yl)carbamate hydrochloride] showed an EC50 of 3.2 µM. In the case of `COC(=O)N[C@H]1CCOc2c1ccc(Cl)c2C(=O)Nc1ccc(F)c(F)c1` [Compound 83, Methyl (S)-(7-chloro-8-((3,4-difluorophenyl)carbamoyl)chroman-4-yl)carbamate], the EC50 is reported as 5.4 µM. `CNC(=O)N[C@H]1CCOc2c1ccc(Cl)c2C(=O)Nc1ccc(F)c(F)c1` [Compound 84, (S)-7-Chloro-N-(3,4-difluorophenyl)-4-(3-methylureido)chromane-8-carboxamide] gave an EC50 of 11 µM. `O=C(N[C@H]1CCOc2c(C(=O)Nc3ccc(F)c(F)c3)cccc21)OCc1ccc(Cl)cn1` [Compound 88, (5-Chloropyridin-2-yl)methyl (S)-(8-((3,4-difluorophenyl)carbamoyl)chroman-4-yl)carbamate hydrochloride] was tested, and the EC50 was 13 µM. Compound `COC(=O)N[C@H]1CCOc2c(C(=O)Nc3ccc(F)c(Cl)c3)ccc(F)c21` [Compound 91, Methyl (S)-(8-((3-chloro-4-fluorophenyl)carbamoyl)-5-fluorochroman-4-yl)carbamate] has an EC50 of 0.2 µM. With `COC(=O)N[C@@H]1CCOc2c(C(=O)Nc3ccc(F)c(Cl)c3)ccc(F)c21` [Compound 92, (R)-Methyl (8-((3-chloro-4-fluorophenyl)carbamoyl)-5-fluorochroman-4-yl) carbamate] the EC50 was 4.6 µM.

Reference: patent publication US11001564B2, “Substituted chromane-8-carboxamide compounds and analogues thereof, and methods using same” (priority 2016, dated 2021)
